The test system of test [1] is durch Elektroschock ausgelöste Konvulsionen. Kind of test: Protection against electroshock-induced convulsions, mouse. The test is classed as in vivo, Maus. The settings on record: po, read-out: effektive Dosis ED50. How it is done:
(§1) Die neuen Verbindungen besitzen wertvolle pharmakologische Eigenschaften, insbesondere eine ausgeprägte antikonvulsive Wirksamkeit, die sich beispielsweise an der Maus anhand eines deutlichen Metrazol-Antagonismus im Dosisbereicn von etwa 30 bis 300 mg/kg p.o. sowie an Maus und Ratte anhand einer ausgeprägten Schutzwirkung gegen durch Elektroschock ausgelöste Konvulsionen im Dosisbereich von etwa 1 bis etwa 50, in den meisten Fällen von etwa 1 bis etwa 25 mg/kg p.o. zeigen lässt. In diesem Modell wurden beispielsweise die folgenden Werte für die effektive Dosis ED50 in mg/kg p.o. erhalten (1 h Vorapplikation): • 1-(2,6-Difluorbenzyl)-1 H-1,2,3-triazof-4-carboxamid: 17 (Maus bzw. 8 (Ratte); • 1-(o-Fluorbenzyl)-1H-1,2,34dazol-4-carboxamid: 17 (Maus, Ratte); • 1-(2,6-Difluorbenzyl)-1 H-1,2,3-triazol-4,5-dicarboxamid: 4 (Maus, Ratte); • 1-(6-Chlor-2-fluor-phenyl)-1 H-1,2,3-triazol-4,5-dicarboxamid: 7 (Maus) bzw. 10 (Ratte), • 1-(o-Fluorphenyl)-1H-1,2,3-triazof-4,5-dicarboxamid: 6 (Maus) bzw. 10 (Ratte); • 1-(6-Chlor-2-fluar-phenyl)-1H-1,2,3-triazol-4-carboxamid: 11 (Maus); 1-(2,5-Difluorbenzyl)-1H-1,2,3-triazol-4,5-dicarboxamid: 6 (Maus).
(§2) Die erfindungsgemäss bereitgestellten fluorierten 1-(a-Phenylalkyl)-1H-1,2,3-triazolverbindungen der Formel (I) weisen ihren als antikonvulsiv wirksam bekannten Chloranalogen gegenüber den Vorteil einer verbesserten Wirksamkeit auf. So ergaben sich in obigem Modell z.B. folgende Ed50-Werte: • 1-(o-Chlorbenzyl)-1 H-1,2,3-triazol-4-carboxamid: 26 (Maus) bzw. 25 (Ratte) und • 1-(o-Chlorbenzyl)-1 H-1,2,3-triazol-4,5-dicarboxamid: 40 (Maus) bzw. 43 (Ratte).

For test [2] the test system is unchanged. In words: Protection against electroshock-induced convulsions, rat. The note with it: po, read-out: effektive Dosis ED50. In kind it is in vivo, Ratte. The procedure: as §1, §2
[3] abbreviates: Maus, electroshock, p.o., 1 h Vorapplikation.
The mark [4] stands for this setting: Ratte, electroshock, p.o., 1 h Vorapplikation.

Our source for the ED50 values is patent EP0199262A2, “Fluorinated benzyl triazole compounds” (CIBA-GEIGY AG, priority 1985, dated 1986).

On to `NC(=O)c1cn(Cc2ccccc2Cl)nn1` [1-(o-Chlorbenzyl)-1 H-1,2,3-triazol-4-carboxamid, reference compound], for which the ED50 worked out at 26 mg/kg in test [1] (1 h) and 25 mg/kg in test [2] (1 h).

Turning to `NC(=O)c1cn(Cc2c(F)cccc2F)nn1` [1-(2,6-Difluorbenzyl)-1 H-1,2,3-triazol-4-carboxamid], the ED50 worked out at 17 mg/kg in test [1] (setting [3]) and 8 mg/kg in test [2] (setting [4]).

As for `NC(=O)c1nnn(Cc2cc(F)ccc2F)c1C(N)=O` [1-(2,5-Difluorbenzyl)-1H-1,2,3-triazol-4,5-dicarboxamid], in test [1] (setting [3]), the ED50 was 6 mg/kg.

On to `NC(=O)c1nnn(Cc2ccccc2F)c1C(N)=O` [1-(o-Fluorbenzyl)-1 H-1,2,3,-triazol-4,5-dicarboxamid], for which the values for the ED50 in test [1] (setting [3]) and in test [2] (setting [4]) were 6 mg/kg and 10 mg/kg, respectively.

With `NC(=O)c1nnn(Cc2c(F)cccc2F)c1C(N)=O` [1-(2,6-Difluorbenzyl)-1H-1,2,3-triazol-4,5-dicarboxamid], the ED50 in test [1] (setting [3]) and in test [2] (setting [4]) was 4 mg/kg throughout.

As for `NC(=O)c1cn(Cc2c(F)cccc2Cl)nn1` [1-(6-Chlor-2-fluor-benzyl)-1H-1,2,3-triazol-4-carboxamid], the ED50 in test [1] (1 h) is 11 mg/kg.

In the case of `NC(=O)c1nnn(Cc2c(F)cccc2Cl)c1C(N)=O` [1-(6-Chlor-2-fluor-benzyl)-1 H-1,2,3-triazol-4,5-dicarboxamid], the ED50 in test [1] (setting [3]) was 7 mg/kg; in test [2] (setting [4]), 10 mg/kg.

For `NC(=O)c1cn(Cc2ccccc2F)nn1` [1-(o-Fluorbenzyl)-1 H-1,2,3-triazol-4-carboxamid], the ED50 in test [1] (1 h) and in test [2] (1 h) was 17 mg/kg throughout.

`NC(=O)c1nnn(Cc2ccccc2Cl)c1C(N)=O` [1-(o-Chlorbenzyl)-1 H-1,2,3-triazol-4,5-dicarboxamid, reference compound]: the ED50 in test [1] (setting [3]) is 40 mg/kg; in test [2] (setting [4]), 43 mg/kg.

As a reminder, the ED50 is the midpoint of the dose-response relation.
